This experiment concerns the target T1, FSHR (Homo sapiens, UniProt P23945).
T1 construct: expressed in transfected cells; host or cells: CHO cells, clone Cho-FSHR-LUC-1-1-43
T1 sequence (P23945 18-695): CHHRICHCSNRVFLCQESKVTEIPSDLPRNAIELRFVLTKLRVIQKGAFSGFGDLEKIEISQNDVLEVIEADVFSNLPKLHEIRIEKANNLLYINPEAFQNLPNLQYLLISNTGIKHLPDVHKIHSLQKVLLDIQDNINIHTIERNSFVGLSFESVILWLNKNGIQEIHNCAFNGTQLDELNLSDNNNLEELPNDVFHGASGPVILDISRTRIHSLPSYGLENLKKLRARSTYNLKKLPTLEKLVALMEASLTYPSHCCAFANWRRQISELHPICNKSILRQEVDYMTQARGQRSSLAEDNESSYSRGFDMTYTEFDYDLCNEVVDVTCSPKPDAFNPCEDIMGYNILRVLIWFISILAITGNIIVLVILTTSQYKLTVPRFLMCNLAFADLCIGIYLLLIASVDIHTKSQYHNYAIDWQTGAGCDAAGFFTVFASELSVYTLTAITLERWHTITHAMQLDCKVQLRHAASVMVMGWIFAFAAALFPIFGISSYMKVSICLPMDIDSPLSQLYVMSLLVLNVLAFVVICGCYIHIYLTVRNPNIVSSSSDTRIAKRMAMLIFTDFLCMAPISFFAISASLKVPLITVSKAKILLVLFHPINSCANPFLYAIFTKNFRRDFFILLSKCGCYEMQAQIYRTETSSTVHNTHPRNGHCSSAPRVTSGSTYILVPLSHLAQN
In words: EC50 of cyclic AMP production in CHO FSHR cells + EC20 FSH (Assay A). As to conditions: CHO-FSHR-LUC cells, in presence of EC20 FSH, cAMP HTRF, 1 h 37° C. The experiment is classed as cell-based. As to the method: EC50 of cyclic AMP production in CHO FSHR cells+EC20 FSH (Assay A)
2500 Cho-FSHR-LUC-1-1-43 cells were plated per well in 5 μl of phenol red free DMEM/F12+1% FBS. […] Cells were assayed by adding 100 μl of 2×EC20 FSH/IBMX in DMEM/F12+0.1% BSA) by Multidrop to 2 μl of test compound stamped in 384 well plates (compounds are diluted 1:50). […] The compound plate map was as follows: Column 1: 2 μl of DMSO; Column 2: 2 μl of DMSO; Columns 3-12 and 13-24: 2 μl of test compound, diluted 1:4 in 100% DMSO, or 2 μl of FSH, diluted 1:4 in DMEM/F12+0.1% BSA. The starting concentration for FSH was 50 nM (final concentration was 0.5 nM). […] 10 μl of mixed HTRF (CisBio #62AM4PEC) reagents were added per well and incubated at room temperature for 1 h. The plates were read on Envision using the cAMP HTRF—low volume 384 well protocol. […] Values given in percent (%) indicate the percental effect (response) at a certain concentration of agonist relative to the maximum response of the FSH standard.
(TR-FRET usually uses a lanthanide donor and a delayed reading to cut background.)
With `COc1cc2c(cc1OC)-n1c(-c3cccs3)nc(C(=O)N(C)C(C)(C)C)c1CC2` [Compound 1, 7,8-Dimethoxy-1-thiophen-2-yl-4,5-dihydro-imidazo[1,5-a]quinoline-3-carboxylic acid tert-butyl-methyl-amide], the concentration for a half-maximal effect (EC50) (commonly the concentration at which the effect is half-maximal) was 100 to 1000 nM.

With `COc1cc2c(cc1OC)-n1c(-c3ccsc3)nc(C(=O)N(C)C(C)(C)C)c1CC2` [Compound 2, 7,8-Dimethoxy-1-thiophen-3-yl-4,5-dihydro-imidazo[1,5-a]quinoline-3-carboxylic acid tert-butyl-methyl-amide], the EC50 is 100 to 1000 nM.

Consider `COc1cc2c(cc1OC(C)C)-n1c(Br)nc(C(=O)N3CCCN(C(=O)C4CCC4)CC3)c1CC2` [Compound 3], for which the EC50 was less than 100 nM.

As for `COc1cc2c(cc1OC(C)C)-n1c(Br)nc(C(=O)N(C)C(C)(C)C)c1CC2` [Compound 4, 1-Bromo-8-isopropoxy-7-methoxy-4,5-dihydro-imidazo[1,5-a]quinoline-3-carboxylic acid tert-butyl-methyl-amide], the EC50 is greater than 5000 nM.

As for `COc1cc2c(cc1OC(C)C)-n1c(-c3ccsc3)nc(C(=O)N(C)C(C)(C)C)c1CC2` [Compound 5], the EC50 is 100 to 1000 nM.

In the case of `COc1cc2c(cc1-c1cccnc1)-n1c(-c3ccsc3)nc(C(=O)N(C)C(C)(C)C)c1CC2` [Compound 8, 7-Methoxy-8-pyridin-3-yl-1-thiophen-3-yl-4,5-dihydro-imidazo[1,5-a]quinoline-3-carboxylic acid tert-butyl-methyl-amide], the concentration giving a half-maximal response (EC50) is less than 100 nM.

Consider `COc1cc2c(cc1OC(C)C)-n1c(-c3cncs3)nc(C(=O)N3CCCN(C(=O)N4CCC4)CC3)c1CC2` [Compound 9], for which the concentration giving a half-maximal response (EC50) was in the range of 1000 to 5000 nM.

On to `COc1cc2c(cc1OC(C)C)-n1c(-c3ccsc3)nc(C(=O)N3CCCN(C(=O)N4CCC4)CC3)c1CC2` [Compound 10], for which the EC50 is 100 to 1000 nM.

On to `COc1cc2c(cc1CC(C)C)-n1c(-c3cc[nH]n3)nc(C(=O)N(C)C(C)(C)C)c1CC2` [Compound 12, 8-Isobutyl-7-methoxy-1-(1H-pyrazol-3-yl)-4,5-dihydro-imidazo[1,5-a]quinoline-3-carboxylic acid tert-butyl-methyl-amide], for which the 50% effective concentration (EC50) is greater than 5000 nM.

For the molecule `COc1cc2c(cc1OC(C)C)-n1c(-c3ccncc3)nc(C(=O)N(C)C(C)(C)C)c1CC2` [Compound 13], the half-maximal effective concentration (EC50) is greater than 5000 nM.

As for `COc1cc2c(cc1OC(C)C)-n1c(-c3ccc(F)s3)nc(C(=O)N(C)C(C)(C)C)c1CC2` [Compound 14], the concentration giving a half-maximal response (EC50) was less than 100 nM.

Consider `COc1cc2c(cc1OC(C)C)-n1c(-c3ccn(C)c3)nc(C(=O)N(C)C(C)(C)C)c1CC2` [Compound 15], for which the EC50 is 100 to 1000 nM.

In the case of `COc1cc2c(cc1OC(C)C)-n1c(-c3cnc(C)s3)nc(C(=O)N(C)C(C)(C)C)c1CC2` [Compound 16], the half-maximal effective concentration (EC50) fell in the range of 1000 to 5000 nM.

On to `COc1cc2c(cc1CC(C)C)-n1c(-c3cccs3)nc(C(=O)N(C)C(C)(C)C)c1CC2` [Compound 17, 8-Isobutyl-7-methoxy-1-thiophen-2-yl-4,5-dihydro-imidazo[1,5-a]quinoline-3-carboxylic acid tert-butyl-methyl-amide], for which the EC50 was less than 100 nM.

In the case of `COc1cc2c(cc1CC(C)C)-n1c(-c3ccsc3)nc(C(=O)N(C)C(C)(C)C)c1CC2` [Compound 18, 8-Isobutyl-7-methoxy-1-thiophen-3-yl-4,5-dihydro-imidazo[1,5-a]quinoline-3-carboxylic acid tert-butyl-methyl-amide], the EC50 was 100 to 1000 nM.

Take `COc1cc2c(cc1CC(C)C)-n1c(-c3cccs3)nc(C(=O)N3CCOCC3(C)C)c1CC2` [Compound 20, (3,3-Dimethyl-morpholin-4-yl)-(8-isobutyl-7-methoxy-1-thiophen-2-yl-4,5-dihydro-imidazo[1,5-a]quinolin-3-yl)-methanone]: the EC50 was less than 100 nM.

`COc1cc2c(cc1CC(C)C)-n1c(C3CCN(C)CC3)nc(C(=O)N(C)C(C)(C)C)c1CC2` [Compound 22, N-(tert-butyl)-8-isobutyl-7-methoxy-N-methyl-1-(1-methylpiperidin-4-yl)-4,5-dihydroimidazo[1,5-a]quinoline-3-carboxamide]: the EC50 lay within 1000 to 5000 nM.

`COc1cc2c(cc1CC(C)C)-n1c(-c3cn[nH]c3)nc(C(=O)N(C)C(C)(C)C)c1CC2` [Compound 23, 8-Isobutyl-7-methoxy-1-(1H-pyrazol-4-yl)-4,5-dihydro-imidazo[1,5-a]quinoline-3-carboxylic acid tert-butyl-methyl-amide]: the concentration giving a half-maximal response (EC50) lay in the range of 1000 to 5000 nM.

As to `COc1cc2c(cc1CC(C)C)-n1c(-c3cccs3)nc(C(=O)NC(C)(C)CO)c1CC2` [Compound 24, 8-Isobutyl-7-methoxy-1-thiophen-2-yl-4,5-dihydro-imidazo[1,5-a]quinoline-3-carboxylic acid (2-hydroxy-1,1-dimethyl-ethyl)-amide], the EC50 lay within 1000 to 5000 nM.

On to `COc1cc2c(cc1CC(C)C)-n1c(-c3cccn3C(=O)OC(C)(C)C)nc(C(=O)N3CCOCC3(C)C)c1CC2` [Compound 26, 2-[3-(3,3-Dimethyl-morpholine-4-carbonyl)-8-isobutyl-7-methoxy-4,5-dihydro-imidazo[1,5-a]quinolin-1-yl]-pyrrole-1-carboxylic acid tert-butyl ester], for which the EC50 lay within 1000 to 5000 nM.

Consider `COc1cc2c(cc1CC(C)C)-n1c(-c3cn[nH]c3C)nc(C(=O)N3CCOCC3(C)C)c1CC2` [Compound 27, (3,3-Dimethyl-morpholin-4-yl)-[8-isobutyl-7-methoxy-1-(5-methyl-1H-pyrazol-4-yl)-4,5-dihydro-imidazo[1,5-a]quinolin-3-yl]-methanone], for which the EC50 was 1000 to 5000 nM.

For `COc1cc2c(cc1CC(C)C)-n1c(-c3cc[nH]c3)nc(C(=O)N3CCOCC3(C)C)c1CC2` [Compound 28, (3,3-Dimethyl-morpholin-4-yl)-[8-isobutyl-7-methoxy-1-(1H-pyrrol-3-yl)-4,5-dihydro-imidazo[1,5-a]quinolin-3-yl]-methanone], the EC50 fell in the range of 100 to 1000 nM.

On to `COc1cc2c(cc1CC(C)C)-n1c(-c3ccn(C)n3)nc(C(=O)N3CCOCC3(C)C)c1CC2` [Compound 29, (3,3-Dimethyl-morpholin-4-yl)-[8-isobutyl-7-methoxy-1-(1-methyl-1H-pyrazol-3-yl)-4,5-dihydro-imidazo[1,5-a]quinolin-3-yl]-methanone], for which the EC50 lay within 100 to 1000 nM.

As to `[2H]C([2H])([2H])OC1CCN(C(=O)c2nc(-c3cccs3)n3c2CCc2cc(OC)c(CC(C)C)cc2-3)C1` (stereo not shown) [Compound 33, (8-Isobutyl-7-methoxy-1-thiophen-2-yl-4,5-dihydro-imidazo[1,5-a]quinolin-3-yl)-(3-methoxy-d3-pyrrolidin-1-yl)-methanone], the 50% effective concentration (EC50) is greater than 5000 nM.

For the molecule `COc1cc2c(cc1OC(C)C)-n1c(-c3cnn(C)c3C)nc(C(=O)N3CCOCC3(C)C)c1CC2` [Compound 35], the EC50 was greater than 5000 nM.

`COc1cc2c(cc1OC(C)C)-n1c(-c3cn(C)nc3C)nc(C(=O)N3CCOCC3(C)C)c1CC2` [Compound 36]: the half-maximal effective concentration (EC50) is greater than 5000 nM.

In the case of `COc1cc2c(cc1OC(C)C)-n1c(-c3c(C)nn(C)c3C)nc(C(=O)N3CCOCC3(C)C)c1CC2` [Compound 37], the EC50 was greater than 5000 nM.

For the molecule `COc1cc2c(cc1OC(C)C)-n1c(-c3cccnc3)nc(C(=O)N3CCOCC3(C)C)c1CC2` [Compound 39], the concentration giving a half-maximal response (EC50) lay in the range of 1000 to 5000 nM.

Take `COc1cc2c(cc1OC(C)C)-n1c(-c3ccnn3C)nc(C(=O)N3CCOCC3(C)C)c1CC2` [Compound 40]: the EC50 was 1000 to 5000 nM.

With `COc1cc2c(cc1OC(C)C)-n1c(-c3cc(C)nn3C)nc(C(=O)N3CCOCC3(C)C)c1CC2` [Compound 42], the EC50 was 100 to 1000 nM.

For `COc1cc2c(cc1OC(C)C)-n1c(-c3ccn(C)n3)nc(C(=O)N3CCOCC3(C)C)c1CC2` [Compound 43], the EC50 is greater than 5000 nM.

On to `COc1cc2c(cc1OC(C)C)-n1c(-c3cncnc3)nc(C(=O)N3CCOCC3(C)C)c1CC2` [Compound 45], for which the EC50 was 100 to 1000 nM.

As to `COc1cc2c(cc1OC(C)C)-n1c(-c3cn(C)cn3)nc(C(=O)N3CCOCC3(C)C)c1CC2` [Compound 46], the EC50 is greater than 5000 nM.

For `COc1cc2c(cc1OC(C)C)-n1c(-c3cncn3C)nc(C(=O)N3CCOCC3(C)C)c1CC2` [Compound 47], the EC50 is greater than 5000 nM.

These data come from US10138233B2, “Imidazole compounds as modulators of FSHR and uses thereof” (Merck Patent GmbH, priority 2013, dated 2018).
